Laboratory results as given in patent US12337003B2, “Pharmaceutical compositions for combination therapy” (Intercept Pharmaceuticals, Inc., priority 2015, dated 2025).

Key:
[1] = system: patients with non-cirrhotic, non-alcoholic steatohepatitis; assay: Subanalysis of clinical trial: concomitant statin use and LDL cholesterol; type: in vivo, humans; settings: patients on statins at baseline; up to Week 72
Description: A subanalysis of the data obtained in Example 9 was performed to assess the effect of statins on low density lipoprotein cholesterol (LDL-C) levels. The aims of these secondary analyses were to determine the effect of OCA versus placebo in the subgroup of patients with more severe NASH and to assess the effects of concomitant statin use on serum LDL cholesterol.
The following calculations were performed for OCA treated subjects in Groups A, B, and C. • Mean and median characteristics listed below will be evaluated at baseline and at Week 72. • Laboratory values: LDL-C, high density lipoprotein cholesterol (HDL-C), alanine and aspartate aminotransferase, gamma glutamyl transferase • Age • Gender: percentage male, percentage female • Percentage diabetic • Histology: steatosis, ballooning, inflammation, fibrosis • Mean and median percentage change at Week 72 from baseline of the above characteristics will be evaluated. Results

[2] = system: APOE*3Leiden.CETP transgenic mice on high fat diet; assay: Diet induced NASH in APOE*3Leiden.CETP mice, hepatic inflammation score; type: in vivo
Description: This experiment was performed to evaluate the effects of OCA and fenofibrate, alone or in combination, on the development of diet induced NASH and liver fibrosis in APOE*3Leiden.CETP transgenic mice. Hepatic gene expression profiling and subsequent pathway analysis were performed to determine whether the combination regulates novel genes not regulated by either monotherapy treatment, and/or more strongly regulates genes also impacted by the monotherapy.
Male APOE*3Leiden.CETP transgenic mice (9-21 weeks old) were obtained and housed 2-5 mice per cage. The mice were fed a high fat diet containing 24% lard and 1% (w/w) cholesterol. The run in period was 15 weeks on the high fat diet. At week 16, mice were matched based on age, body weight, plasma cholesterol and triglycerides after 4 h fasting.
• Mice (n=15) were fed a high fat diet during the run in weeks 0 to 14. Group 2: HFC control group • Mice (n=15) were fed a high fat diet from weeks 0 to 24. Group 3: HFC+OCA • Mice (n=15) were fed a high fat diet supplemented with OCA at a dose of 10 mg/kg once daily from week 16 to 24. Group 4: HFC+low dose fenofibrate • Mice (n=15) were fed a high fat diet supplemented with fenofibrate at a dose of 10 mg/kg once daily from week 16 to 24. Group 5: HFC+high dose fenofibrate • Mice (n=15) were fed a high fat diet supplemented with fenofibrate at a dose of 40 mg/kg once daily from week 16 to 24. Group 6: HFC+OCA+low dose fenofibrate • Mice (n=15) were fed a high fat diet supplemented with OCA at a dose of 10 mg/kg once daily and fenofibrate at a dose of 10 mg/kg once daily from week 16 to 24. Group 7: HFC+OCA+high dose fenofibrate • Mice (n=15) were fed a high fat diet supplemented with OCA at a dose of 10 mg/kg once daily and fenofibrate at a dose of 40 mg/kg once daily from week 16 to 24. Group 8: Chow control group • Mice (n=8) were feed chow from week 0 to 24. Study Design
Mice were fed a high fat chow (HFC) diet for […]. After 15 weeks on the HFC diet, HFC mice were matched into 7 groups based on age, body weight, plasma cholesterol and triglycerides after 4 h fasting. Mice were treated with of OCA and fenofibrate, alone or in combination beginning at week 15 and sacrificed at week 25 in an unfasted state. One week before sacrifice, mice were labeled with D20, by i.p. injection of a bolus of D20 and subsequent addition of 4% D20 to the drinking water. Plasma (EDTA) was obtained by heart puncture and stored at −70° C. The liver was weighed and 4 pieces of liver were isolated: 1 piece (medial lobe) was fixed in 10% formalin (for NASH and fibrosis histology) and 3 pieces (sinister lobe) were snap-frozen in liquid N2 and stored individually at −70° C.
Inflammation is a key feature of NASH. Inflammation was categorized according to the procedure by Liang et al., PlosOne 2014 Dec. 9(12) and scored by quantitatively analyzing the number of inflammatory cells aggregates. In particular, the level of inflammation was evaluated by counting the number of inflammatory foci per field using a 100× magnification (view size of 3.1 mm2; average of five different fields).

[3] = system: rat aortic smooth muscle cell; settings: Li 2007; cited from earlier work

Structure (SMILES): CC[C@H]1[C@@H](O)[C@@H]2[C@H](CC[C@]3(C)[C@@H]([C@H](C)CCC(=O)O)CC[C@@H]23)[C@@]2(C)CC[C@@H](O)C[C@@H]12 [OCA, 3α,7α-dihydroxy-6α-ethyl-5β-cholan-24-oic acid]
- LDL cholesterol during OCA treatment [1]: increased
- Inflammation (# of inflammatory cell foci) ([2]; OCA 10 mg/kg and/or low dose fenofibrate 10 mg/kg, in high fat diet): 29.1 ± 22.7
- effect on number of inflammatory cell foci ([2]; after 10 weeks, OCA 10 mg/kg and/or fenofibrate 10 mg/kg, relative to vehicle control): neither OCA (10 mg/kg) nor fenofibrate (10 mg/kg) reduced
- pharmacologically-induced rat aortic smooth muscle cell migration [3]: abolished
- production of iNOS or COX-2 induced by IL-1β [3]: inhibited
